In US20250009713A1 (priority 2021, published 2025):

Assays:
Assay type in all cases: cell-based
[1] = system: SARS-COV-2 US-PHC658/2021 (delta variant; NR-55611); assay: microbe, parasite or virus in culture; details: Plaque, Calu-3, virus Delta
[2] = system: SARS-COV-2 England/204820464/2020 (alpha variant; NR-54000); assay: microbe, parasite or virus in culture
[3] = system: SARS-COV-2 SouthAfrica/KRISP-K005325/2020 (beta variant; NR-54009); assay: microbe, parasite or virus in culture; details: Plaque, Calu-3, virus SA
[4] = system: SARS-COV-2 SouthAfrica/KRISP-K005325/2020 (beta variant; NR-54009); assay: microbe, parasite or virus in culture; details: Plaque, Vero, virus SA
[5] = system: SARS-COV-2 USA/MD-HP20874/2021 (omicron variant; NR-56461); assay: microbe, parasite or virus in culture; details: PCR, Calu-3, virus Omicron
[6] = system: SARS-COV-2 US-PHC658/2021 (delta variant; NR-55611); assay: microbe, parasite or virus in culture; details: Plaque, Vero, virus Delta
[7] = system: SARS-COV-2 SouthAfrica/KRISP-K005325/2020 (beta variant; NR-54009); assay: microbe, parasite or virus in culture
[8] = system: SARS-COV-2 US-PHC658/2021 (delta variant; NR-55611); assay: microbe, parasite or virus in culture; details: PCR, Calu-3, virus Delta
[9] = system: SARS-COV-2 USA/MD-HP20874/2021 (omicron variant; NR-56461); assay: microbe, parasite or virus in culture; details: PCR, Vero, virus Omicron
[10] = system: SARS-COV-2 England/204820464/2020 (alpha variant; NR-54000); assay: microbe, parasite or virus in culture; details: PCR, Calu-3, virus UK
[11] = system: SARS-COV-2 England/204820464/2020 (alpha variant; NR-54000); assay: microbe, parasite or virus in culture; details: Plaque, Calu-3, virus UK
[12] = system: SARS-COV-2 USA/MD-HP20874/2021 (omicron variant; NR-56461); assay: microbe, parasite or virus in culture; details: Plaque, Calu-3, virus Omicron
[13] = system: SARS-COV-2 USA/MD-HP20874/2021 (omicron variant; NR-56461); assay: microbe, parasite or virus in culture; details: Plaque, Vero, virus Omicron
[14] = system: SARS-COV-2 US-PHC658/2021 (delta variant; NR-55611); assay: microbe, parasite or virus in culture; details: PCR, Vero, virus Delta
[15] = system: SARS-COV-2 England/204820464/2020 (alpha variant; NR-54000); assay: microbe, parasite or virus in culture; details: Plaque, Vero, virus UK
[16] = system: SARS-COV-2 strain US (US-WA1/2020); assay: plaque assay, strain US, summary over cell types; details: Severe acute respiratory syndrome coronavirus 2, two-way ANOVA estimate
[17] = system: SARS-COV-2 SouthAfrica/KRISP-K005325/2020 (beta variant; NR-54009); assay: microbe, parasite or virus in culture; details: PCR, Calu-3, virus SA
[18] = Severe acute respiratory syndrome coronavirus 2, m.o.i 0.1, […]
[19] = PCR, Vero, virus UK, log-logistic curve fit
[20] = Severe acute respiratory syndrome coronavirus 2, Vero
[21] = PCR, Vero, virus SA, log-logistic curve fit

In the case of `Cn1cc(-c2cccc3cc(C(=O)NC(=N)N)ccc23)cn1` [BIT225, N-carbamimidoyl-5-(1-methyl-1H-pyrazol-4-yl)-2-naphthamide], the “Max. Response (d)” value ([1]; log-logistic curve fit) is reported as 3.44 log10, the “Slope (b)” value ([1]; log-logistic curve fit) is reported as 1.00 nmol⁻¹ and the EC50 [1, 18] is reported as 7.9 µM. For the same molecule, the “Max. Response (d)” value [2, 19] was 3.58 log10, the “Slope (b)” value [2, 19] was 1.07 nmol⁻¹ and the EC50 [2, 20] was 4.56 µM. For the same molecule, the “Max. Response (d)” value ([3]; log-logistic curve fit) was 3.52 log10, the “Slope (b)” value ([3]; log-logistic curve fit) was 1.34 nmol⁻¹ and the EC50 [3, 18] was 6.79 µM. For the same molecule, the “Slope (b)” value ([4]; log-logistic curve fit) was 1.50 nmol⁻¹, the EC50 [4, 18] was 7.26 µM and the “Max. Response (d)” value ([5]; log-logistic curve fit) was 2.57 log10. For the same molecule, the “Slope (b)” value ([5]; log-logistic curve fit) was 1.08 nmol⁻¹, the EC50 [5, 18] was 4.37 µM and the “Max. Response (d)” value ([6]; log-logistic curve fit) was 6.45 log10. For the same molecule, the “Slope (b)” value ([6]; log-logistic curve fit) was 1.48 nmol⁻¹, the EC50 [6, 18] was 6.65 µM and the “Max. Response (d)” value [7, 21] was 3.52 log10. For the same molecule, the “Slope (b)” value [7, 21] was 1.28 nmol⁻¹, the EC50 [7, 20] was 2.65 µM and the “Max. Response (d)” value ([8]; log-logistic curve fit) was 2.56 log10. For the same molecule, the “Slope (b)” value ([8]; log-logistic curve fit) was 1.08 nmol⁻¹, the EC50 [8, 18] was 4.81 µM and the “Max. Response (d)” value ([9]; log-logistic curve fit) was 3.51 log10. The “Slope (b)” value ([9]; log-logistic curve fit) was 1.22 nmol⁻¹, the EC50 [9, 18] was 3.37 µM and the “Max. Response (d)” value ([10]; log-logistic curve fit) was 2.58 log10. For the same molecule, the “Slope (b)” value ([10]; log-logistic curve fit) was 1.21 nmol⁻¹, the EC50 [10, 18] was 2.86 µM and the “Max. Response (d)” value ([11]; log-logistic curve fit) was 3.43 log10. The “Slope (b)” value ([11]; log-logistic curve fit) was 1.15 nmol⁻¹, the EC50 [11, 18] was 5.72 µM and the “Max. Response (d)” value ([12]; log-logistic curve fit) was 3.42 log10. For the same molecule, the “Slope (b)” value ([12]; log-logistic curve fit) was 1.11 nmol⁻¹, the EC50 [12, 18] was 7.61 µM and the “Max. Response (d)” value ([13]; log-logistic curve fit) was 6.31 log10. For the same molecule, the “Slope (b)” value ([13]; log-logistic curve fit) was 1.41 nmol⁻¹, the EC50 [13, 18] was 6.5 µM and the “Max. Response (d)” value ([14]; log-logistic curve fit) was 3.55 log10. The “Slope (b)” value ([14]; log-logistic curve fit) was 1.15 nmol⁻¹, the EC50 [14, 18] was 3.59 µM and the “Max. Response (d)” value ([15]; log-logistic curve fit) was 6.41 log10. For the same molecule, the EC50 [15, 18] was 6.7 µM, the EC50 [16] was 3.8 µM and the “Max. Response (d)” value ([17]; log-logistic curve fit) was 2.67 log10. For the same molecule, the “Slope (b)” value ([17]; log-logistic curve fit) was 1.07 nmol⁻¹ and the EC50 [17, 18] was 4.17 µM.
